Values of other authors in paper PMC7028125 (Clinical Pharmacology in Drug Development, 2019).

Columns and labels:
[1] = test system: organic cation transporter 2; set-up: method as in PMID 23132334; conditions: in vitro
P‐glycoprotein = test system: P‐glycoprotein; set-up: method as in PMID 23132334; conditions: in vitro
[2] = test system: breast cancer resistance protein; set-up: method as in PMID 23132334; conditions: in vitro
[3] = mass balance study of 20 mg [14C]‐dolutegravir (80 µCi)
[4] = test system: multidrug and toxin extrusion 1 transporter; conditions: in vitro

**Q.** With `C[C@@H]1CCO[C@H]2Cn3cc(C(=O)NCc4ccc(F)cc4F)c(=O)c(O)c3C(=O)N12` [Dolutegravir, dolutegravir] as the compound, how does the “Inhibition of organic cation transporter 2 (in words)” value [1] read?
**A.** The value was “potently inhibits”.

**Q.** What about the “Substrate for P‐glycoprotein (in words)” value (P‐glycoprotein) of the same compound?
**A.** Its value is “substrate”.

**Q.** And the “Substrate for breast cancer resistance protein (in words)” value [2]?
**A.** Its value is “substrate”.

**Q.** And the “Dolutegravir recovered in feces” value [3]?
**A.** Its value is 64.0%.

**Q.** What about the “Dolutegravir recovered in urine” value [3] of the same compound?
**A.** The value was 31.6%.

**Q.** What about the “Inhibition of multidrug and toxin extrusion 1 transporter (in words)” value [4] of the same compound?
**A.** The value was “potently inhibits”.
